Assay results from patent US5932587A, “Heterocyclic-fused pyridines” (Bayer Aktiengesellschaft, priority 1996, dated 1999).

Assays:
CETP = experiment: Ex vivo activity: CETP activity in serum of treated Syrian golden hamsters; conditions: ex vivo CETP activity in hamster serum; for ED50 (ex vivo activity): up to 24 hours after administration
Method: Ex vivo activity of the compounds according to the invention
Syrian golden hamsters from in-house breeding are anaesthetized after fasting for 24 hours (0.8 mg/kg of atropine, 0.8 mg/kg of Ketavet® s.c., 30' later 50 mg/kg of Nembutal i.p.). The jugular vein is then exposed and cannulated. The test substance is dissolved in a suitable solvent (as a rule Adalat placebo solution: 60 g of glycerol, 100 ml of H2 O, PEG-400 to 1000 ml) and administered to the animals via a PE catheter inserted in the jugular vein. The control animals receive the same volume of solvent without test substance. The vein is then tied off and the wound is closed.
The administration of the test substances can also be carried out p.o., by orally administering the substances dissolved in DMSO and suspended in 0.5% Tylose by means of a stomach tube. The control animals receive identical volumes of solvent without test substance.
After various times--up to 24 hours after administration--blood (about 250 μl) is taken from the animals by puncture of the retro-orbital venous plexus. Clotting is ended by incubation at 4° C. overnight, then centrifugation is carried out at 6000×g for 10 minutes. In the serum thus obtained, CETP activity is determined by the modified CETP test. As for the CETP test described above, the transfer of ^3 H-cholesterol ester from HD lipoproteins to biotinylated LD lipoproteins is measured.
The reaction is ended by addition of Streptavidin-SPA®beads (Amersham) and the transferred radioactivity is determined directly in the liquid scintillation counter.
The test mixture is carried out as described under "CETP test". For the testing of the serum, only 10 μl of CETP are replaced by 10 μl of the corresponding serum samples. As controls, corresponding incubations with sera of untreated animals are used.
The activity transferred in the control mixtures with control sera is rated as 100% transfer. The substance concentration at which this transfer is reduced to a half is indicated as the ED50 value.

[1] = target: T1, cholesterol ester transfer protein (CETP) (Homo sapiens, UniProt P11597); experiment: CETP inhibition test (transfer of 3H-cholesterol ester from human HDL to biotinylated LDL, SPA); type: biochemical; conditions: 37° C., 18 h
T1 construct: CETP is obtained from human plasma in partially purified form; from tissue; host or cells: human plasma (partially purified in house by differential centrifugation and column chromatography)
T1 sequence (P11597 18-493): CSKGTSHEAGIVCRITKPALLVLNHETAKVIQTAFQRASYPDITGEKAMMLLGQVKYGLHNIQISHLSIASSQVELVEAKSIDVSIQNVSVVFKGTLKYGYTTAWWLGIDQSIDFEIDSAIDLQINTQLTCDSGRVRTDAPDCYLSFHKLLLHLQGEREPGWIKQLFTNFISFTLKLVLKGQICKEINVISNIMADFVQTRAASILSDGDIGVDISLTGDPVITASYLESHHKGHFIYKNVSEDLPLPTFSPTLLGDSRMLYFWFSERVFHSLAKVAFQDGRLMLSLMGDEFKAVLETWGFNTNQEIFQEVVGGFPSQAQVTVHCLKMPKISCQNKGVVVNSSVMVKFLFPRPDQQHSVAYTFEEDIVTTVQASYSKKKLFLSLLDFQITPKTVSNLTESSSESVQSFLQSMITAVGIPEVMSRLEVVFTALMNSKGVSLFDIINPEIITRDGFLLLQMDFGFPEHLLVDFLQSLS
Method: CETP is obtained from human plasma in partially purified form by differential centrifugation and column chromatography and used for the test. To this end, human plasma is adjusted to a density of 1.21 g per ml using NaBr and centrifuged at 4° C. for 18 h at 50,000 rpm. The bottom fraction (d>1.21 g/ml) is applied to a Sephadex®phenyl-sepharose 4B (Pharmacia) column, washed with 0.15 M NaCl/0.001 M tris HCl pH 7.4 and then eluted with distilled water. The CETP-active fractions are pooled, dialysed against 50 mM Na acetate pH 4.5 and applied to a CM-Sepharose® (Pharmacia) column. The column is then eluted using a linear gradient (0-1 M NaCl). The pooled CETP fractions are dialysed against 10 mM tris HCl pH 7.4 and then further purified by chromatography on a Mono Q® column (Pharmacia).
Obtainment of radiolabelled HDL
50 ml of fresh human EDTA plasma are adjusted to a density of 1.12 using NaBr and centrifuged at 50,000 rpm for 18 h at 4° C. in a Ty 65 rotor. The upper phase is used to obtain cold LDL. The lower phase is dialysed against 3×4 l of PDB buffer (10 mM tris/HCl pH 7.4, […], 1 mM EDTA, 0.02% NaN3). 20 μl of ^3 H-cholesterol (Dupont NET-725; 1 μC/μl dissolved in ethanol) are then added per 10 ml of retentate volume and the mixture is incubated under N2 at 37° C. for 72 h. […]
To test the CETP activity, the transfer of ^3 H-cholesterol ester from human HD lipoproteins to biotinylated LD lipoproteins is measured. The reaction is ended by addition of streptavidin-SPA®beads (Amersham) and the transferred radioactivity is determined directly in a liquid scintillation counter.
In the test mixture, 10 μl of HDL-^3 H-cholesterol ester (~50,000 cpm) are incubated at 37° C. for 18 h with 10 μl of biotin-LDL (Amersham) in 50 mM Hepes/0.15 M NaCl/0.1% bovine serum albumin/0.05% NaN3 pH 7.4 with 10 μl of CETP (1 mg/ml) and 3 μl of solution of the substance to be tested (dissolved in 10% DMSO/1% RSA). 200 μl of the SPA-streptavidin bead solution (TRKQ 7005) are then added, the mixture is incubated further for 1 h with shaking and then measured in the scintillation counter. […]

[2] = In vivo activity: oral action on lipoproteins and triglycerides in Syrian golden hamsters (HDL rise); conditions: dose 2 × 3 mg/kg, hamster, up to 24 hours after administration
Method: In vivo activity of the compounds according to the invention
In experiments to determine the oral action on lipoproteins and triglycerides, test substance dissolved in DMSO and 0.5% Tylose suspended by means of a stomach tube are administered orally to Syrian golden hamsters from in-house breeding. To determine the CETP activity, blood (about 250 μl) is taken by retro-orbital puncture before the start of the experiment. The test substances are then administered orally by means of a stomach tube. The control animals receive identical volumes of solvent without test substance. […]
Clotting is ended by incubation at 4° C. overnight, then centrifugation at 6000×g is carried out for 10 minutes. In the serum thus obtained, the content of cholesterol and triglycerides is determined with the aid of modified commercially available enzyme tests (cholesterol enzymatic 14366 Merck, triglycerides 14364 Merck). […]
100 μl of serum dilution are mixed with 100 μl of test substance in 96-hole plates and incubated at room temperature for 10 minutes. The optical density is then determined at a wavelength of 492 nm using an automatic plate-reading apparatus. The triglyceride or cholesterol concentration contained in the samples is determined with the aid of a standard curve measured in parallel. […]

[3] = In vivo activity in transgenic hCETP mice (change in HDL, LDL, triglycerides); conditions: 80 ppm in the feed, one week
Method: In vivo activity in transgenic hCETP mice
Transgenic mice from in-house breeding (Dinchuck, Hart, Gonzalez Karmann Schmidt, Wirak; BBA (1995), 1295, 301) were administered the substances to be tested in the feed. Before the start of the experiment, blood was taken retro-orbitally from the mice in order to determine cholesterol and triglycerides in the serum. The serum was obtained as described above for hamsters by incubation at 4° C. overnight and subsequent centrifugation at 6000×g. After one week, blood was again taken from the mice in order to determine lipoproteins and triglycerides. The change in the parameters measured is expressed as a percentage change compared with the starting value.

SMILES | ED50 (ex vivo activity) (CETP) | % Inhibition at 10 mg/kg (CETP) | IC50 [1] | % HDL rise [2] | HDL (percentage change compared with the starting value) [3] | LDL (percentage change compared with the starting value) [3] | Triglycerides (percentage change compared with the starting value) [3]
CC1CC(O)c2c(nc(C3CCCC3)c(C(O)c3ccc(C(F)(F)F)cc3)c2-c2ccc(F)cc2)N1Cc1ccccc1 (single isomer, unassigned) [Example 21] | > 10 mg/kg | 34.4% | – | – | – | – | –
OC1CSCc2nc(C3CCCC3)c(C(F)c3ccc(C(F)(F)F)cc3)c(-c3ccc(F)cc3)c21 (centres unmarked) [Example 12] | < 10 mg/kg | 49.5% | 200 nM | 12.37% | – | – | –
O=S1(=O)Cc2nc(C3CCCC3)c(C(O)c3ccc(C(F)(F)F)cc3)c(-c3ccc(F)cc3)c2C(O)C1 (centres unmarked) [Example 14] | – | – | 6000 nM | – | – | – | –
OC1CCN(Cc2ccccc2)c2nc(C3CCCC3)c(Cc3ccc(C(F)(F)F)cc3)c(-c3ccc(F)cc3)c21 (centres unmarked) [Example 16] | – | – | 850 nM | – | – | – | –
CC1CC(O)c2c(nc(C3CCCC3)c(Cc3ccc(C(F)(F)F)cc3)c2-c2ccc(F)cc2)N1Cc1ccccc1 (centres unmarked) [Example 20] | > 10 mg/kg | 50.4% | – | 9.21% | +14.5% | +6.7% | -24.5%
